Data: patent publication US20070276011A1, “Plasminogen Activator Inhibitor-1 Inhibitor” (priority 2003, published 2007)

Target: recombinant human PAI-1 (Homo sapiens, UniProt P05121)
Experiment: PAI-1 inhibitory activity, Test Method A (tPA fluorogenic substrate, Tris buffer pH8.0, 37 C)
Format: biochemical
Conditions: Test Method A

Sequence of recombinant human PAI-1 (P05121 24-402): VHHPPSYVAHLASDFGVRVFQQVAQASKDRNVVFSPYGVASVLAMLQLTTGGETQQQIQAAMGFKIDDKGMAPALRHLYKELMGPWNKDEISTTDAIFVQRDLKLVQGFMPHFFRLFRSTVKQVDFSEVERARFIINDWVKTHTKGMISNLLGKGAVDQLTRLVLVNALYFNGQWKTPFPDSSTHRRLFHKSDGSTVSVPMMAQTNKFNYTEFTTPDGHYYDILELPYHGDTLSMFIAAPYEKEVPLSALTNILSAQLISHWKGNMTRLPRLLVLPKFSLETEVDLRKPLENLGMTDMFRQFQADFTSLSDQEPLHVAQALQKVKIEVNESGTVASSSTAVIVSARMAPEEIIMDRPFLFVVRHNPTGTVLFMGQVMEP

Inhibitory Ratio at 25 μM (%) (test compound 25 μM) | Inhibitory Ratio at 25 μM (%) (25 μM test compound) | Structure (SMILES)
 | 73% | COc1ccc(C=C2SC(=O)N(Cc3ccc(Cl)c(Cl)c3)C2=O)cc1C(F)(F)F [compound 333]
35% |  | COC(=O)c1cccc(N2N=C(C(C)C)C(=Cc3ccc(Br)o3)C2=O)c1 [compound 205]
39% |  | CCOC1=NN(c2ccc([N+](=O)[O-])cc2)C(=O)C1=Cc1ccc(O)c(O)c1O [compound 155]
 | 95% | O=C(Nc1ccc(O)c(O)c1)c1cc(C=C2SC(=O)N(Cc3cc(Cl)cc(Cl)c3)C2=O)ccc1O [compound 396]
32% |  | COC(=O)c1cccc(N2N=C(C(C)(C)C)C(=Cc3ccc(Cl)c(Cl)c3)C2=O)c1 [compound 197]
93% |  | COc1cc(OC)c(OC)cc1CN1C(=O)SC(=Cc2cccc(O)c2O)C1=O [compound 15, 5-(2,3-Dihydroxybenzylidene)-3-(2,4,5-trimethoxybenzyl)thiazolidine-2,4-dione]
>99% |  | O=C(CN1C(=O)SC(=Cc2ccc(O)c(O)c2)C1=O)c1ccc(Cl)cc1Cl [compound 92, 5-(3,4-Dihydroxybenzylidene)-3-[(2,4-dichlorobenzoyl)-methyl]thiazolidine-2,4-dione]
 | >99% | CC(C)C1=NN(c2ccc(Cl)c(Cl)c2)C(=O)C1=Cc1cc(Oc2ccc(Br)cc2)ccc1[N+](=O)[O-] [Compound No. 562, 4-[2-Nitro-5-(4-bromophenoxy)benzylidene]-1-(3,4-dichlorophenyl)-3-isopropyl-2-pyrazolin-5-one]
62% |  | CCOC(=O)c1cc(C=C2SC(=O)N(Cc3cc(C(F)(F)F)cc(C(F)(F)F)c3)C2=O)ccc1O [compound 28, 5-(3-Ethoxycarbonyl-4-hydroxybenzylidene)-3-[3,5-bis(trifluoromethyl)-benzyl]thiazolidine-2,4-dione]
 | >99% | O=C(Nc1ccc(O)c(O)c1)c1cc(C=C2SC(=O)N(Cc3cc(C(F)(F)F)ccc3C(F)(F)F)C2=O)ccc1O [compound 374]
 | 21% | COc1ccc(C=C2SC(=O)N(Cc3ccc(Cl)c(Cl)c3)C2=O)cc1O [compound 323]
 | 83% | COC(=O)c1cc(C=C2SC(=O)N(Cc3ccc(Cl)cc3Cl)C2=O)cc(OC)c1O [compound 429]
 | 62% | CCOC1=NN(c2ccc([N+](=O)[O-])cc2)C(=O)C1=Cc1c2ccccc2cc2ccccc12 [compound 547]
65% |  | Nc1ccc(C=C2SC(=O)N(Cc3ccc(Cl)c(Cl)c3)C2=O)cc1O [compound 88]
20% |  | O=C1C(=Cc2ccc(O)c(O)c2)SC(=S)N1c1ccc(O)c(O)c1 [compound 77, 5-(3,4-Dihydroxybenzylidene)-3-(3,4-dihydroxyphenyl)rhodanine]
>99% |  | Cc1ccc(N2N=C(C(C)C)C(=Cc3ccc(O)c(O)c3)C2=O)cc1Cl [compound 119, 4-(3,4-Dihydroxybenzylidene)-1-(3-chloro-4-methylphenyl)-3-isopropyl-2-pyrazolin-5-one]
 | >99% | O=C1C(=Cc2ccc(O)cc2)C(c2ccc(O)cc2)=NN1c1cc(Cl)cc(Cl)c1 [compound 511]
>99% |  | O=C1C(=Cc2ccc(O)c(O)c2O)C(C(F)(F)F)=NN1c1cc(Cl)cc(Cl)c1 [compound 150]

Second part, the compound before the results:

Structure (SMILES) | Inhibitory Ratio at 25 μM (%) (test compound 25 μM) | Inhibitory Ratio at 25 μM (%) (25 μM test compound)
CC(C)C1=NN(c2cc(Cl)cc(Cl)c2)C(=O)C1=Cc1cc(O)c(O)c(O)c1 [compound 130] | >99% | 
CC(C)C1=NN(c2cc(Cl)cc(Cl)c2)C(=O)C1=Cc1c[nH]cn1 [compound 508] |  | 26%
CC(C)C1=NN(c2cc(Cl)cc(Cl)c2)C(=O)C1=Cc1ccc(O)c(O)c1O [compound 142] | >99% | 
COc1ccc(NC(=O)c2cc(C=C3SC(=O)N(Cc4ccc(Cl)c(Cl)c4)C3=O)ccc2O)cc1OC [compound 432, 5-[4-hydroxy-3-(3,4-dimethoxyphenylcarbamoyl)benzylidene]-3-(3,4-dichlorobenzyl)thiazolidine-2,4-dione] |  | 64%
O=C1SC(=Cc2ccc(O)c(O)c2)C(=O)N1Cc1cc(Br)cc(Br)c1 [compound 46, 5-(3,4-Dihydroxybenzylidene)-3-(3,5-dibromobenzyl)thiazolidine-2,4-dione] | >99% | 
CC(C)(C)C1=NN(c2cc(Cl)cc(Cl)c2)C(=O)C1=Cc1cc(O)c(O)c(O)c1 [compound 139] | >99% | 
CC1=NN(c2ccc(Cl)cc2)C(=O)C1=Cc1cc(O)c(O)cc1O [compound 224] | 69% | 
O=C(O)c1cccc(N2N=C(c3ccccc3)C(=Cc3ccccc3)C2=O)c1 [compound 175] | 35% | 
O=C(O)c1cc(C=C2SC(=O)N(Cc3ccc(Cl)c(Cl)c3)C2=O)cc(-c2ccccc2)c1O [compound 430] |  | 87%
O=C1SC(=Cc2cccc(O)c2O)C(=O)N1Cc1cc(Br)cc(Br)c1 [compound 47] | >99% | 
O=C1SC(=Cc2cccc(O)c2O)C(=O)N1Cc1cccc(Nc2ccccc2)c1 [compound 319] |  | >99%
CCOC(=O)C1=NN(c2cccc(C(=O)OCC)c2)C(=O)C1=Cc1ccc2c(c1)OCO2 [compound 196] | 54% | 
O=C(O)c1ccc(Cl)c(-c2ccc(C=C3C(=O)N(c4cccc(C(F)(F)F)c4)N=C3O)o2)c1 [compound 220] | >99% | 
CCOC1=NN(c2ccc([N+](=O)[O-])cc2)C(=O)C1=Cc1cc(C=Cc2ccc(Oc3ccccc3)cc2)ccc1O [Compound No. 565, 4 [2-Hydroxy-5-(4-phenoxystyryl)benzylidene]-1-(4-nitrophenyl)-3-ethoxy-2-pyrazolin-5-one] |  | >99%
O=C1SC(=Cc2ccc(Cl)c(O)c2)C(=O)N1Cc1ccc(Cl)c(Cl)c1 [compound 328] |  | 63%
O=C1SC(=Cc2cccc(O)c2O)C(=O)N1Cc1cc(Cl)cc(Cl)c1 [compound 11, 5-(2,3-Dihydroxybenzylidene)-3-(3,5-dichlorobenzyl)thiazolidine-2,4-dione] | >99% | 
O=C(Nc1cc(C(F)(F)F)ccc1Cl)c1cc(C=C2SC(=O)N(Cc3ccc(Cl)c(Cl)c3)C2=O)cc(O)c1O [compound 469] |  | >99%
O=C(O)c1cccc(N2N=C(C(F)(F)F)C(=Cc3ccc(-c4cc(Cl)cc(Cl)c4)s3)C2=O)c1 [compound 184] | 43% | 
COc1cccc(NC(=O)c2cc(C=C3SC(=O)N(Cc4ccc(Cl)c(Cl)c4)C3=O)ccc2O)c1 [compound 355, 5-[4-hydroxy-3-(3-methoxyphenylcarbamoyl)benzylidene]-3-(3,4-dichlorobenzyl)thiazolidine-2,4-dione] |  | >99%

Structure (SMILES) | Inhibitory Ratio at 25 μM (%) (test compound 25 μM) | Inhibitory Ratio at 25 μM (%) (25 μM test compound)
CCOC1=NN(c2ccc([N+](=O)[O-])cc2)C(=O)C1=Cc1c(O)ccc2ccccc12 [compound 546] |  | 96%
CC(C)C1=NN(c2ccc(Cl)nc2)C(=O)C1=Cc1cc(O)c(O)cc1O [compound 222, 4-(2,4,5-Trihydroxybenzylidene)-1-(2-chloropyridin-5-yl)-3-isopropyl-2-pyrazolin-5-one] | 79% | 
CC(C)C1=NN(c2cc(Cl)cc(Cl)c2)C(=O)C1=Cc1ccc(O)cc1O [compound 505] |  | 93%
COC(=O)c1cc(C=C2SC(=O)N(Cc3ccc(Cl)c(Cl)c3)C2=O)cc(OC)c1O [compound 343, 5-[3-methoxy-4-hydroxy-5-(methoxycarbonyl)benzylidene]-3-(3,4-dichlorobenzyl)thiazolidine-2,4-dione] |  | 71%
O=C1SC(=Cc2cccc(O)c2O)C(=O)N1Cc1cc(C(F)(F)F)cc(C(F)(F)F)c1 [compound 70] | >99% | 
CC1=NN(c2cccc(Cl)c2)C(=O)C1=Cc1cc(O)c(O)c(O)c1 [compound 123] | 67% | 
O=C(Nc1cccc2c1OC(F)(F)O2)c1cc(C=C2SC(=O)N(Cc3ccc(Cl)c(Cl)c3)C2=O)ccc1O [compound 460] |  | 57%
COc1ccc(O)c(C=C2C(=O)N(c3ccc(Cl)c(Cl)c3)N=C2C(C)C)c1 [compound 518, 4-(2-hydroxy-5-methoxybenzylidene)-1-(3,4-dichlorophenyl)-3-isopropyl-2-pyrazolin-5-one] |  | 83%
O=C(Nc1cc(C(F)(F)F)ccc1F)c1cc(C=C2SC(=O)N(Cc3ccc(Cl)c(Cl)c3)C2=O)ccc1O [compound 442] |  | 58%
O=C(Nc1ccc(O)c(O)c1)c1cc(C=C2SC(=O)N(Cc3ccc(Cl)cc3Cl)C2=O)ccc1O [compound 398] |  | >99%
O=C(O)c1cccc(-c2ccc(C=C3SC(=S)N(c4cccc(F)c4)C3=O)o2)c1 [compound 62] | 36% | 
COc1ccc(C(=O)Nc2cc(C=C3SC(=O)N(Cc4ccc(Cl)c(Cl)c4)C3=O)ccc2OC)cc1 [compound 381, 5-[4-methoxy-3-(4-methoxybenzoylamino)benzylidene]-3-(3,4-dichlorobenzyl)thiazolidine-2,4-dione] |  | 27%
O=C1SC(=Cc2ccc(O)c(F)c2)C(=O)N1Cc1ccc(Cl)c(Cl)c1 [compound 332] |  | >99%
O=C(O)c1cccc(NC(=O)c2cc(C=C3SC(=O)N(Cc4ccc(Cl)c(Cl)c4)C3=O)ccc2O)c1 [compound 420] |  | 85%
CCOC1=NN(c2ccc([N+](=O)[O-])cc2)C(=O)C1=Cc1cc(C=Cc2ccccc2)ccc1O[Si](C)(C)C(C)(C)C [compound 543] |  | >99%
CC1=NN(c2cc(Cl)cc(Cl)c2)C(=O)C1=Cc1ccc(O)c(O)c1 [compound 112, 4-(3,4-Dihydroxybenzylidene)-1-(3,5-dichlorophenyl)-3-methyl-2-pyrazolin-5-one] | >99% | 
O=C1SC(=Cc2cccc(O)c2O)C(=O)N1Cc1ccc(Nc2ccccc2)cc1 [compound 309] |  | >99%
O=C1SC(=Cc2ccc(O)c(O)c2)C(=O)N1Cc1ccc(-c2ccccc2)cc1 [compound 21] | >99% | 
O=C1C(=Cc2ccc(-c3cc([N+](=O)[O-])ccc3O)o2)C(O)=NN1c1cccc(Cl)c1 [compound 165] | 29% | 
